Numbered stars: 1 amine (or outer) side, 2 acyl side, 3 side chain; on linkers, the order of the positions; unused ones are H or OH. Bridge positions count the residues as written; N and C are the ends. Square brackets hold non-standard residues; d marks the D form. Peptide text beside a SMILES is read from it. * marks the point of attachment. Trp(βS-Me,7-OMe) = COc1cccc2c([C@H](C)[C@H](N)C(=O)O)c[nH]c12; Trp(1-CH2COOH) = N[C@@H](Cc1cn(CC(=O)O)c2ccccc12)C(=O)O; Phe(4-CH2CH2COOH) = N[C@@H](Cc1ccc(CCC(=O)O)cc1)C(=O)O; Phe(4-SO2NH2) = N[C@@H](Cc1ccc(S(N)(=O)=O)cc1)C(=O)O; Phe(2-F,4-COOH) = N[C@@H](Cc1ccc(C(=O)O)cc1F)C(=O)O; dPro(trans-4-NMe2) = CN(C)[C@@H]1CN[C@@H](C(=O)O)C1; Trp(7-CN) = N#Cc1cccc2c(C[C@H](N)C(=O)O)c[nH]c12; Trp(7-Cl) = N[C@@H](Cc1c[nH]c2c(Cl)cccc12)C(=O)O; X20 = O=C1NCc2ccc(C[C@H](N[*:1])C(=O)[*:2])cc21; Phe(3-CONH2) = NC(=O)c1cccc(C[C@H](N)C(=O)O)c1; Phe(4-CONH2) = NC(=O)c1ccc(C[C@H](N)C(=O)O)cc1; Phe(4-COOH) = N[C@@H](Cc1ccc(C(=O)O)cc1)C(=O)O; Trp(7-aza) = N[C@@H](Cc1c[nH]c2ncccc12)C(=O)O; dPro(trans-4-F) = O=C(O)[C@H]1C[C@H](F)CN1; dPro(4S-NH2) = N[C@@H]1CN[C@@H](C(=O)O)C1; Pip(5R-OH) = O=C(O)[C@@H]1CC[C@@H](O)CN1; X1 = O=C([C@@H]1CC[C@H](N[*:1])C1)[*:2]; NMeT = CN[C@H](C(=O)O)[C@@H](C)O; 4Pal = N[C@@H](Cc1ccncc1)C(=O)O; NMeE = CN[C@@H](CCC(=O)O)C(=O)O; dHyp = O=C(O)[C@H]1C[C@H](O)CN1; NEtAla = CCN[C@@H](C)C(=O)O; αMeS = C[C@](N)(CO)C(=O)O; Carboxymethyl = O=C(O)C*; Nle = CCCC[C@H](N)C(=O)O; Sar = CNCC(=O)O
Target: T1, TNFα-induced NF-κB signal transduction pathway (TNFR1 signaling) in THP-1 cells (Homo sapiens, UniProt P19438)
T1 sequence (P19438 30-455): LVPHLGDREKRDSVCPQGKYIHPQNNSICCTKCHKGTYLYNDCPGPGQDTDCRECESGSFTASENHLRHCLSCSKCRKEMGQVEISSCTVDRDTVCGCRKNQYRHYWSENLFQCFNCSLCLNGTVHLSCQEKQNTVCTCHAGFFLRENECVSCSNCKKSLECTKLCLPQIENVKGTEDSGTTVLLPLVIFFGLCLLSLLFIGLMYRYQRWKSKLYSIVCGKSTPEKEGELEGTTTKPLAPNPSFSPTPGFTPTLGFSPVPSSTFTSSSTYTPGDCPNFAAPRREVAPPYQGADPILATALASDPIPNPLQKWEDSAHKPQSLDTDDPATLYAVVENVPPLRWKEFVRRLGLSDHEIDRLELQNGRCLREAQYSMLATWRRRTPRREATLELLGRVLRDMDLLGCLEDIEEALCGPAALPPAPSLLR
Experiment: THP-1 Lucia NF-κB reporter cell assay, inhibition of TNFα-induced NF-κB signaling
Type: cell-based
Conditions: THP-1 NF-κB Lucia reporter cells, 10 ng/mL TNFα, 16-18 h, secreted luciferase; read-out: THP-1 IC50
How it was run: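 IC50 from a 4-parameter logistic fit of secreted luciferase luminescence (QUANTI-Luc), normalised to min/max controls. Reporter THP-1 cells were exposed to peptides for 1 h at 37 °C before 10 ng/mL TNFα (final) was added overnight (16–18 h).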

Point of comparison: `CCCC[C@@H]1NC(=O)[C@@H]2CC[C@@H](C2)NC(=O)[C@H]([C@@H](C)c2c[nH]c3c(OC)cccc23)NC(=O)CN(C)C(=O)[C@H](Cc2ccc(C(N)=O)cc2)NC(=O)[C@H](Cc2ccc(C(N)=O)cc2)NC(=O)[C@](C)(CO)NC(=O)[C@H](Cc2c[nH]c3c(C#N)cccc23)NC(=O)[C@H](Cc2ccc3c(c2)C(=O)NC3)NC(=O)[C@H](CC(N)=O)NC(=O)[C@H]2C[C@H](OCC(=O)O)CN2C(=O)[C@H](Cc2cn(CC(=O)O)c3ccccc23)NC(=O)[C@@H]2CC[C@@H](O)CN2C(=O)[C@H](Cc2ccncc2)NC1=O` [SEQ ID NO. 22] (cyclo([4Pal][Pip(5R-OH)][Trp(1-CH2COOH)][dHyp](Carboxymethyl)N[X20][Trp(7-CN)][αMeS][Phe(4-CONH2)][Phe(4-CONH2)][Sar][Trp(βS-Me,7-OMe)][X1][Nle])), IC50 0.6 nM. Against it:
- CCCC[C@@H]1NC(=O)[C@@H]2CC[C@@H](C2)NC(=O)[C@H]([C@@H](C)c2c[nH]c3c(OC)cccc23)NC(=O)CN(C)C(=O)[C@H](Cc2ccc(C(N)=O)cc2)NC(=O)[C@H](Cc2ccc(S(N)(=O)=O)cc2)NC(=O)[C@](C)(CO)NC(=O)[C@H](Cc2c[nH]c3c(C#N)cccc23)NC(=O)[C@H](Cc2ccc(C(=O)O)cc2)NC(=O)[C@H](CC(N)=O)NC(=O)[C@H]2C[C@H](N(C)C)CN2C(=O)[C@H](Cc2cn(CC(=O)O)c3ccccc23)NC(=O)[C@@H]2CC[C@@H](O)CN2C(=O)[C@H](Cc2ccncc2)NC1=O [SEQ ID NO. 2] (cyclo([4Pal][Pip(5R-OH)][Trp(1-CH2COOH)][dPro(trans-4-NMe2)]N[Phe(4-COOH)][Trp(7-CN)][αMeS][Phe(4-SO2NH2)][Phe(4-CONH2)][Sar][Trp(βS-Me,7-OMe)][X1][Nle])) — within 1.5-fold, 0.5 nM
- CCCC[C@@H]1NC(=O)[C@@H]2CC[C@@H](C2)NC(=O)[C@H]([C@@H](C)c2c[nH]c3c(OC)cccc23)NC(=O)CN(C)C(=O)[C@H](Cc2ccc(OCC(=O)O)cc2)NC(=O)[C@H](Cc2ccc(S(N)(=O)=O)cc2)NC(=O)[C@](C)(CO)NC(=O)[C@H](Cc2c[nH]c3c(C#N)cccc23)NC(=O)[C@H](Cc2ccc(OCC(=O)O)cc2)NC(=O)[C@H](CC(N)=O)NC(=O)[C@H]2C[C@H](N)CN2C(=O)[C@H](Cc2cn(CC(=O)O)c3ccccc23)NC(=O)[C@@H]2CC[C@@H](O)CN2C(=O)[C@H](Cc2ccncc2)NC1=O [SEQ ID NO. 18] (cyclo([4Pal][Pip(5R-OH)][Trp(1-CH2COOH)][dPro(4S-NH2)]NY(Carboxymethyl)[Trp(7-CN)][αMeS][Phe(4-SO2NH2)]Y(Carboxymethyl)[Sar][Trp(βS-Me,7-OMe)][X1][Nle])) — the same, 0.6 nM
- CCCC[C@@H]1NC(=O)[C@@H]2CC[C@@H](C2)NC(=O)[C@H]([C@@H](C)c2c[nH]c3c(OC)cccc23)NC(=O)CN(C)C(=O)[C@H](Cc2cccc(C(N)=O)c2)NC(=O)[C@H](Cc2ccc(C(N)=O)cc2)NC(=O)[C@](C)(CO)NC(=O)[C@H](Cc2c[nH]c3c(C#N)cccc23)NC(=O)[C@H](Cc2ccc(C(=O)O)cc2)NC(=O)[C@H](CC(N)=O)NC(=O)[C@H]2C[C@H](F)CN2C(=O)[C@H](Cc2c[nH]c3ccccc23)NC(=O)[C@@H]2CC[C@@H](O)CN2C(=O)[C@H](Cc2ccncc2)NC1=O [SEQ ID NO. 21] (cyclo([4Pal][Pip(5R-OH)]W[dPro(trans-4-F)]N[Phe(4-COOH)][Trp(7-CN)][αMeS][Phe(4-CONH2)][Phe(3-CONH2)][Sar][Trp(βS-Me,7-OMe)][X1][Nle])) — 1.5-fold higher, 0.9 nM
- CCCC[C@@H]1NC(=O)CSC[C@@H](C(N)=O)NC(=O)[C@H]([C@@H](C)c2c[nH]c3c(OC)cccc23)NC(=O)CN(C)C(=O)[C@H](Cc2ccc(O)cc2)NC(=O)[C@H](Cc2ccc(C(=O)O)cc2)NC(=O)[C@](C)(CO)NC(=O)[C@H](Cc2c[nH]c3c(Cl)cccc23)NC(=O)[C@H](Cc2ccncc2)NC(=O)[C@H](CC(N)=O)NC(=O)[C@H](CCC(=O)O)N(C)C(=O)[C@H](Cc2c[nH]c3ncccc23)NC(=O)[C@H]([C@@H](C)O)N(C)C(=O)[C@H](Cc2ccncc2)NC1=O [SEQ ID NO. 29] ({CH2CO}-[Nle][4Pal][NMeT][Trp(7-aza)][NMeE]N[4Pal][Trp(7-Cl)][αMeS][Phe(4-COOH)]Y[Sar][Trp(βS-Me,7-OMe)]C-NH2; thioether N-14) — 5.5-fold higher, 3.3 nM
- CCCC[C@@H]1NC(=O)[C@@H]2CC[C@@H](C2)NC(=O)[C@H]([C@@H](C)c2c[nH]c3c(OC)cccc23)NC(=O)CN(C)C(=O)[C@H](Cc2ccc(CCC(=O)O)cc2)NC(=O)[C@H](Cc2ccc(S(N)(=O)=O)cc2)NC(=O)[C@](C)(CO)NC(=O)[C@H](Cc2c[nH]c3c(C#N)cccc23)NC(=O)[C@H](Cc2ccc(OCC(=O)O)cc2)NC(=O)[C@H](CC(N)=O)NC(=O)[C@H]2C[C@H](O)CN2C(=O)[C@H](Cc2c[nH]c3ncccc23)NC(=O)[C@@H]2CC[C@@H](O)CN2C(=O)[C@H](Cc2ccncc2)NC1=O [SEQ ID NO. 30] (cyclo([4Pal][Pip(5R-OH)][Trp(7-aza)][dHyp]NY(Carboxymethyl)[Trp(7-CN)][αMeS][Phe(4-SO2NH2)][Phe(4-CH2CH2COOH)][Sar][Trp(βS-Me,7-OMe)][X1][Nle])) — within 1.5-fold, 0.5 nM
- CCCC[C@@H]1NC(=O)CSC[C@@H](C(N)=O)NC(=O)[C@H]([C@@H](C)c2c[nH]c3c(OC)cccc23)NC(=O)CN(C)C(=O)[C@H](Cc2ccc(O)cc2)NC(=O)[C@H](Cc2ccc(C(=O)O)cc2)NC(=O)[C@](C)(CO)NC(=O)[C@H](Cc2c[nH]c3c(Cl)cccc23)NC(=O)[C@H](Cc2ccncc2)NC(=O)[C@H](CC(N)=O)NC(=O)[C@H](CCC(=O)O)N(C)C(=O)[C@H](Cc2c[nH]c3ncccc23)NC(=O)[C@H](C)N(CC)C(=O)[C@H](Cc2ccncc2)NC1=O [SEQ ID NO. 38] ({CH2CO}-[Nle][4Pal][NEtAla][Trp(7-aza)][NMeE]N[4Pal][Trp(7-Cl)][αMeS][Phe(4-COOH)]Y[Sar][Trp(βS-Me,7-OMe)]C-NH2; thioether N-14) — 5.2-fold higher, 3.1 nM
- CCCC[C@@H]1NC(=O)[C@@H]2CC[C@@H](C2)NC(=O)[C@H]([C@@H](C)c2c[nH]c3c(OC)cccc23)NC(=O)CN(C)C(=O)[C@H](Cc2ccc(C(=O)O)cc2F)NC(=O)[C@H](Cc2ccc(C(N)=O)cc2)NC(=O)[C@](C)(CO)NC(=O)[C@H](Cc2c[nH]c3c(Cl)cccc23)NC(=O)[C@H](Cc2ccc(C(=O)O)cc2F)NC(=O)[C@H](CC(N)=O)NC(=O)[C@H]2C[C@H](O)CN2C(=O)[C@H](Cc2c[nH]c3ccccc23)NC(=O)[C@@H]2CC[C@@H](O)CN2C(=O)[C@H](Cc2ccncc2)NC1=O [SEQ ID NO. 41] (cyclo([4Pal][Pip(5R-OH)]W[dHyp]N[Phe(2-F,4-COOH)][Trp(7-Cl)][αMeS][Phe(4-CONH2)][Phe(2-F,4-COOH)][Sar][Trp(βS-Me,7-OMe)][X1][Nle])) — the same, 0.6 nM
- CCCC[C@@H]1NC(=O)[C@@H]2CC[C@@H](C2)NC(=O)[C@H]([C@@H](C)c2c[nH]c3c(OC)cccc23)NC(=O)CN(C)C(=O)[C@H](Cc2ccc(C(N)=O)cc2)NC(=O)[C@H](Cc2ccc(C(N)=O)cc2)NC(=O)[C@](C)(CO)NC(=O)[C@H](Cc2c[nH]c3c(C#N)cccc23)NC(=O)[C@H](Cc2ccc(C(=O)O)cc2)NC(=O)[C@H](CC(N)=O)NC(=O)[C@H]2C[C@H](O)CN2C(=O)[C@H](Cc2c[nH]c3ccccc23)NC(=O)[C@@H]2CC[C@@H](O)CN2C(=O)[C@H](Cc2ccncc2)NC1=O [SEQ ID NO. 45] (cyclo([4Pal][Pip(5R-OH)]W[dHyp]N[Phe(4-COOH)][Trp(7-CN)][αMeS][Phe(4-CONH2)][Phe(4-CONH2)][Sar][Trp(βS-Me,7-OMe)][X1][Nle])) — the same, 0.6 nM
